In test [1] the test system is Staphylococcus aureus. The experiment in a line: Antibacterial activity against methicillin-resistant Staphylococcus aureus assessed as inhibition of bacterial growth at 50 uM by microdilution assay relative to control. The test is classed as functional.
In test [2] the test system is Pseudomonas aeruginosa. The test can be described thus: Antibacterial activity against Pseudomonas aeruginosa assessed as inhibition of bacterial growth at 50 uM by microdilution assay relative to control. The test is classed as functional.
Test [3] concerns Klebsiella pneumoniae. The test can be described thus: Antibacterial activity against Klebsiella pneumoniae assessed as inhibition of bacterial growth at 50 uM by microdilution assay relative to control. The test is classed as functional.
The subject of test [4] is Staphylococcus aureus. The test can be described thus: Antibacterial activity against methicillin-resistant Staphylococcus aureus assessed as inhibition of bacterial growth by microdilution assay. It is filed as functional, organism-based.

`COc1cc(/C=C/C(=O)N2CCC(Nc3ccc(OC(F)(F)F)cc3)CC2)ccc1O`: the figures for the inhibition at 50 µM in test [1], in test [2] and in test [3] were 0%, 16% and 0%, respectively.

`COc1ccc(NC2CCN(C(=O)/C=C/c3ccc4c(c3)OCCCO4)CC2)cc1`: the inhibition at 50 µM in test [1] came out at 0%; in test [2], 0%; in test [3], 30%. The IC50 in test [4] amounted to 50.1 µM.

Take `CC(C)c1ccc(NC2CCN(C(=O)/C=C/c3ccccc3)CC2)cc1`: the figures for the inhibition at 50 µM in test [1], in test [2] and in test [3] were 42%, 20% and 27%, respectively.

Consider `CC(C)c1ccc(NC2CCN(C(=O)/C=C/c3ccc4c(c3)OCCO4)CC2)cc1`, for which the inhibition at 50 µM in test [1] worked out at 26%; in test [2] it was 10%; in test [3] it was 29%.

Consider `O=C(/C=C/c1ccc2c(c1)OCCO2)N1CCC(Nc2ccc(Cl)cc2)CC1`, for which the figures for the inhibition at 50 µM in test [1], in test [2] and in test [3] were 24%, 10% and 19%, respectively. Besides, the IC50 in test [4] was 60.5 µM.

`COc1cc(/C=C/C(=O)N2CCC(Nc3ccc(C)cc3)CC2)ccc1O`: the figures for the inhibition at 50 µM in test [1], in test [2] and in test [3] were 0%, 6% and 49%, respectively.

For `COc1cc(/C=C/C(=O)N2CCC(Nc3ccc4c(c3)OCCO4)CC2)ccc1O`, the inhibition at 50 µM in test [1] was 3%; in test [2], 0%; in test [3], 23%.

Turning to `O=C(/C=C/c1ccc2c(c1)OCO2)N1CCC(Nc2ccc(Cl)cc2)CC1`, the results for the inhibition at 50 µM in test [1], in test [2] and in test [3] were 20%, 13% and 32%, respectively.

Consider `COc1cc(/C=C/C(=O)N2CCC(Nc3cccc(F)c3)CC2)ccc1O`, for which the inhibition at 50 µM worked out at 0% in test [1], 4% in test [2] and 29% in test [3].

Consider `COc1ccc(NC2CCN(C(=O)/C=C/c3ccc4c(c3)OCO4)CC2)cc1`, for which the inhibition at 50 µM in test [1] was 0%; in test [2], 0%; in test [3], 44%.

Turning to `CC(C)c1ccc(NC2CCN(C(=O)/C=C/c3ccc4c(c3)OCO4)CC2)cc1`, the inhibition at 50 µM turned out to be 0% in test [1], 27% in test [2] and 28% in test [3].

As for `COc1cc(/C=C/C(=O)N2CCC(Nc3ccc(F)cc3)CC2)ccc1O`, the inhibition at 50 µM in test [1], in test [2] and in test [3] was 0% in each case.

As to `COc1cc(/C=C/C(=O)N2CCC(Nc3cccc(Cl)c3)CC2)ccc1O`, the results for the inhibition at 50 µM in test [1], in test [2] and in test [3] were 0%, 14% and 0%, respectively.

As to `COc1ccc(NC2CCN(C(=O)/C=C/c3ccc4c(c3)OCCO4)CC2)cc1`, the inhibition at 50 µM in test [1] was found to be 30%; in test [2], 7%; in test [3] it was 40%.

In the case of `O=C(/C=C/c1ccc2c(c1)OCCO2)N1CCC(Nc2ccccc2)CC1`, the figures for the inhibition at 50 µM in test [1], in test [2] and in test [3] were 0%, 14% and 35%, respectively.

Consider `COc1cc(/C=C/C(=O)N2CCC(Nc3cccc4ccccc34)CC2)ccc1O`, for which the inhibition at 50 µM in test [1], in test [2] and in test [3] was 0% throughout.

Consider `CC(C)c1ccc(NC2CCN(C(=O)/C=C/c3ccc4c(c3)OCCCO4)CC2)cc1`, for which the inhibition at 50 µM in test [1] turned out to be 0%; in test [2] it was 14%; in test [3], 54%.

Regarding `O=C(/C=C/c1ccc2c(c1)OCO2)N1CCC(Nc2ccccc2)CC1`, the inhibition at 50 µM in test [1] came out at 0%; in test [2] it was 0%; in test [3], 24%.

As to `O=C(/C=C/c1ccccc1)N1CCC(Nc2ccccc2)CC1`, the figures for the inhibition at 50 µM in test [1], in test [2] and in test [3] were 36%, 0% and 0%, respectively.

For the molecule `COc1ccc(NC2CCN(C(=O)/C=C/c3ccc(O)c(OC)c3)CC2)cc1`, the inhibition at 50 µM turned out to be 4% in test [1], 0% in test [2] and 0% in test [3].

As for `O=C(/C=C/c1ccc2c(c1)OCCCO2)N1CCC(Nc2ccc(Cl)cc2)CC1`, the inhibition at 50 µM in test [1] was determined as 0%; in test [2], 5%; in test [3] it was 27%.

As to `COc1ccc(NC2CCN(C(=O)/C=C/c3ccccc3)CC2)cc1`, the values for the inhibition at 50 µM in test [1], in test [2] and in test [3] were 15%, 7% and 21%, respectively.

Take `O=C(/C=C/c1ccccc1)N1CCC(Nc2ccc(Cl)cc2)CC1`: the inhibition at 50 µM in test [1] amounted to 22%; in test [2], 37%; in test [3], 38%.

Turning to `O=C(/C=C/c1ccc2c(c1)OCCCO2)N1CCC(Nc2ccccc2)CC1`, the values for the inhibition at 50 µM in test [1], in test [2] and in test [3] were 0%, 6% and 40%, respectively.

Regarding `COc1cc(/C=C/C(=O)N2CCC(NCc3ccccc3)CC2)ccc1O`, the inhibition at 50 µM in test [1] was 0%; in test [2], 0%; in test [3], 41%.

Turning to `COc1cc(/C=C/C(=O)N2CCC(Nc3ccccc3)CC2)ccc1O`, the inhibition at 50 µM stood at 8% in test [1], 20% in test [2] and 37% in test [3].

Take `COc1cc(/C=C/C(=O)N2CCC(Nc3ccc(Cl)cc3)CC2)ccc1O`: the inhibition at 50 µM in test [1] came out at 0%; in test [2] it was 18%; in test [3], 37%.

For `COc1cc(/C=C/C(=O)N2CCC(Nc3ccc(C(C)C)cc3)CC2)ccc1O`, the inhibition at 50 µM in test [1] is 0%; in test [2], 25%; in test [3] it was 20%.

The record behind these values is ChEMBL document CHEMBL6092134, “N-acyl-4-arylaminopiperidines: Design and synthesis of a potential antimicrobial scaffold” (Bioorg Med Chem Lett, 2024).
